{"source": "ChEMBL document CHEMBL5390242", "about": "“Design, Synthesis, and Antitumor Efficacy of Substituted 2-Amino[1,2,4]triazolopyrimidines and Related Heterocycles as Dual Inhibitors for Microtubule Polymerization and Janus Kinase 2” (J Med Chem, 2023)", "key": {"HeLa": {"test_system": "HeLa", "assay": "Antiproliferative activity against human HeLa cells assessed as cell growth inhibition incubated for 48 hrs by MTT assay", "type": "functional, cell-based"}, "KP-4": {"test_system": "KP-4", "assay": "Antiproliferative activity against human KP-4 cells assessed as cell growth inhibition incubated for 48 hrs by MTT assay", "type": "functional, cell-based", "conditions": "KP-4, 48 h"}, "A549 [1]": {"test_system": "A549", "assay": "Antiproliferative activity against human A549 cells assessed as cell growth inhibition incubated for 48 hrs by MTT assay", "type": "functional, cell-based", "conditions": "A549, 48 h"}, "HepG2": {"test_system": "HepG2", "assay": "Cytotoxicity against human HepG2 cells assessed as cell growth inhibition incubated for 48 hrs by MTT assay", "type": "functional, cell-based", "conditions": "HepG2, 48 h"}, "A2780/Taxol": {"test_system": "A2780/Taxol", "assay": "Antiproliferative activity against human A2780T cells assessed as cell growth inhibition incubated for 48 hrs by MTT assay", "type": "functional, cell-based"}, "[2]": {"assay": "Resistance index, ratio of IC50 for antiproliferative activity against human HCT-8/VCR cells to IC50 for antiproliferative activity against human HCT-8 cells", "type": "functional"}, "[3]": {"assay": "Resistance index, ratio of IC50 for antiproliferative activity against human A549/DDP cells to IC50 for antiproliferative activity against human A549 cells", "type": "functional"}, "HT-29": {"test_system": "HT-29", "assay": "Antiproliferative activity against human HT-29 cells assessed as cell growth inhibition incubated for 48 hrs by MTT assay", "type": "functional, cell-based", "conditions": "HT-29, 48 h"}, "[4]": {"assay": "Antiproliferative activity against Chinese hamster CHO-K1 cells assessed as cell growth inhibition incubated for 48 hrs by MTT assay", "type": "toxicity, cell-based, Cricetulus griseus"}, "[5]": {"assay": "AUC (0 to infinity) in CD-1 mouse at 1 mg/kg,iv measured upto 24 hrs by HPLC-MS/MS analysis", "type": "ADME, organism-based", "design": "dose 1 mg/kg, time < 24 hrs, route iv", "conditions": "in vivo"}, "[6]": {"assay": "Cmax in CD-1 mouse at 1 mg/kg,iv measured upto 24 hrs by HPLC-MS/MS analysis", "type": "ADME, organism-based", "design": "dose 1 mg/kg, time < 24 hrs, route iv", "conditions": "in vivo"}, "[7]": {"assay": "AUC (0 to infinity) in CD-1 mouse at 10 mg/kg,ip measured upto 24 hrs by HPLC-MS/MS analysis", "type": "ADME, organism-based", "design": "time < 24 hrs, dose 10 mg/kg, route ip", "conditions": "in vivo"}, "[8]": {"assay": "MRT (0 to infinity) in CD-1 mouse at 10 mg/kg,ip measured upto 24 hrs by HPLC-MS/MS analysis", "type": "ADME, organism-based", "conditions": "in vivo"}, "[9]": {"assay": "Cmax in CD-1 mouse at 10 mg/kg,ip measured upto 24 hrs by HPLC-MS/MS analysis", "type": "ADME, organism-based", "design": "time < 24 hrs, dose 10 mg/kg, route ip", "conditions": "in vivo"}, "[10]": {"assay": "Oral bioavailability in CD-1 mouse at 10 mg/kg,ip measured upto 24 hrs by HPLC-MS/MS analysis", "type": "ADME, organism-based", "conditions": "in vivo"}, "[11]": {"assay": "AUC (0 to t) in CD-1 mouse assessed as AUC (0 to t) of metabolite at 10 mg/kg,ip measured upto 24 hrs by HPLC-MS/MS analysis", "type": "ADME, organism-based", "design": "dose 10 mg/kg, time < 24 hrs, route ip", "conditions": "in vivo"}, "[12]": {"assay": "Tmax in CD-1 mouse assessed as Tmax of metabolite at 10 mg/kg,ip measured upto 24 hrs by HPLC-MS/MS analysis", "type": "ADME, organism-based", "conditions": "in vivo"}, "Tubulin (Sus scrofa)": {"biological_target": "Tubulin (Sus scrofa) (UniProt P02554+P02550)", "sequence (P02550 whole entry, looked up)": "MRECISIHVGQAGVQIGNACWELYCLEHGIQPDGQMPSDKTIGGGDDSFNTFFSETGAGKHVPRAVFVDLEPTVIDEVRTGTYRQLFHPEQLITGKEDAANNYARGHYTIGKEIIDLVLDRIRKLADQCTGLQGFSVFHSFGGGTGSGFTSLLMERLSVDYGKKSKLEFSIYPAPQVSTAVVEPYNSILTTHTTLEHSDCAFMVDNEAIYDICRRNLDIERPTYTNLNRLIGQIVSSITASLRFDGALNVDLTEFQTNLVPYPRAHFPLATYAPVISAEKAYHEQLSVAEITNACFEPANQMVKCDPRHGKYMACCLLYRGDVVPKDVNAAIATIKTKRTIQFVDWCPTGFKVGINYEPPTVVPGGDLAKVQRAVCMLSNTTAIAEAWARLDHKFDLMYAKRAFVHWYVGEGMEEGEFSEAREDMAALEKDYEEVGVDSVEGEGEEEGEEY", "sequence (P02554 whole entry, looked up)": "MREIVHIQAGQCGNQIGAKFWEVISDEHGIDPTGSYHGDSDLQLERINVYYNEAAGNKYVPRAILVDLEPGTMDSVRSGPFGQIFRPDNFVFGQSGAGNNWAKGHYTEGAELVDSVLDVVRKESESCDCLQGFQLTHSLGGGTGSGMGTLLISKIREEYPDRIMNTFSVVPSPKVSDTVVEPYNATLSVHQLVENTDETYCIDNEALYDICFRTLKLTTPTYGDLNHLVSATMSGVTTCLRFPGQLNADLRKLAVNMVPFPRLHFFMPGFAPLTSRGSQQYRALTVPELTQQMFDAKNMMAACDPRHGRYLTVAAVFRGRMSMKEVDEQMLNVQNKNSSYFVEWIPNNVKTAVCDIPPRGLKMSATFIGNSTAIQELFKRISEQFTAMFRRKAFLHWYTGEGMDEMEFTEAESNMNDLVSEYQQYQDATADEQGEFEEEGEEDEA", "assay": "Inhibition of porcine brain tubulin polymerization at 0.625 to 2.5 uM measured for 30 mins in presence of GTP by microplate reader assay", "type": "tissue-based", "conditions": "dose 0.625-2.5 µM"}, "A549 [13]": {"test_system": "A549", "assay": "Induction of apoptosis in human A549 cells assessed as early apoptotic cells at 5 nM incubated for 24 hrs by Annexin V-FITC/PI staining based flow cytometry (reference value: 4.61 %)", "type": "functional"}, "A549 [14]": {"test_system": "A549", "assay": "Induction of apoptosis in human A549 cells assessed as early apoptotic cells at 10 nM incubated for 24 hrs by Annexin V-FITC/PI staining based flow cytometry (reference value: 4.61 %)", "type": "functional"}, "A549 [15]": {"test_system": "A549", "assay": "Induction of apoptosis in human A549 cells assessed as late apoptotic cells at 5 nM incubated for 24 hrs by Annexin V-FITC/PI staining based flow cytometry (reference value: 1.72 %)", "type": "functional"}, "A549 [16]": {"test_system": "A549", "assay": "Induction of apoptosis in human A549 cells assessed as necrotic cells at 5 nM incubated for 24 hrs by Annexin V-FITC/PI staining based flow cytometry (reference value: 0.67 %)", "type": "functional"}, "A549 [17]": {"test_system": "A549", "assay": "Induction of apoptosis in human A549 cells assessed as reduction of mitochondrial membrane potential at 5 to 20 nM incubated for 16 hrs by JC-1 staining based fluorescence microscopy", "type": "functional, cell-based", "conditions": "dose 5-20 nM"}, "A549 [18]": {"test_system": "A549", "assay": "Induction of apoptosis in human A549 cells assessed as reduction of mitochondrial membrane potential incubated for 16 hrs by JC-1 staining based flow cytometry analysis", "type": "functional, cell-based"}, "A549 [19]": {"test_system": "A549", "assay": "Induction of mitochondrial membrane potential loss in human A549 cells by measuring red fluorescence at 5 nM incubated for 16 hrs by JC-1 staining based flow cytometry analysis (reference value: 99.3 %)", "type": "functional"}, "[20]": {"assay": "Toxicity in Balb/c mouse xenografted with human A549 cells assessed as effect on liver morphology at 50 mg/kg,ip administration measured after 31 days by Hematoxylin-eosin staining based microscopy", "type": "organism-based", "conditions": "in vivo, 744 h, time 31 day"}, "[21]": {"assay": "Toxicity in Balb/c mouse xenografted with human A549 cells assessed as effect on heart morphology at 50 mg/kg,ip administration measured after 31 days by Hematoxylin-eosin staining based microscopy", "type": "organism-based", "conditions": "in vivo, 744 h, time 31 day"}, "[22]": {"assay": "Acute toxicity in C57BL/6 mouse assessed as maximum tolerated dose administered intravenously for 5 consecutive days", "conditions": "in vivo, route iv"}}, "note": "Activity calls are given as the source filed them. No cut-off for these calls is given here.", "data": [{"smiles": "COc1cc(-c2nccc3nc(Nc4cccc5[nH]ccc45)nn23)cc(OC)c1OC", "values": [{"measurement": "IC50", "setting": "HeLa", "result": 15, "unit": "nM"}, {"measurement": "IC50", "setting": "KP-4", "result": 13, "unit": "nM"}, {"measurement": "IC50", "setting": "A549 [1]", "result": 8, "unit": "nM"}, {"measurement": "IC50", "setting": "HepG2", "result": 51.8, "unit": "nM"}, {"measurement": "IC50", "setting": "A2780/Taxol", "result": 20, "unit": "nM"}, {"measurement": "Ratio IC50", "setting": "[2]", "result": 1.4}, {"measurement": "Ratio IC50", "setting": "[3]", "result": 0.5}, {"measurement": "IC50", "setting": "HT-29", "result": 27, "unit": "nM"}, {"measurement": "IC50 at 48 h", "setting": "[4]", "result": 130, "unit": "nM"}, {"measurement": "AUC(0-inf)", "setting": "[5]", "result": 390, "unit": "ng·h/mL"}, {"measurement": "Cmax", "setting": "[6]", "result": 117, "unit": "ng/mL"}, {"measurement": "AUC(0-inf)", "setting": "[7]", "result": 580, "unit": "ng·h/mL"}, {"measurement": "MRT inf", "setting": "[8]", "result": 5.6, "unit": "h"}, {"measurement": "Cmax", "setting": "[9]", "result": 158, "unit": "ng/mL"}, {"measurement": "bioavailability", "setting": "[10]", "result": 15.4, "unit": "%"}, {"measurement": "AUCt", "setting": "[11]", "result": 2534.7, "unit": "ng·h/mL"}, {"measurement": "Tmax", "setting": "[12]", "result": 1, "unit": "h"}, {"measurement": "inhibition", "setting": "Tubulin (Sus scrofa)", "result": "Active"}, {"measurement": "Activity", "setting": "A549 [13]", "result": 7.51, "unit": "%"}, {"measurement": "Activity", "setting": "A549 [14]", "result": 27.3, "unit": "%"}, {"measurement": "Activity", "setting": "A549 [15]", "result": 1.78, "unit": "%"}, {"measurement": "Activity", "setting": "A549 [16]", "result": 0.21, "unit": "%"}, {"measurement": "Activity", "setting": "A549 [17]", "result": "Active"}, {"measurement": "Activity", "setting": "A549 [18]", "result": "Dose-Dependent Effect"}, {"measurement": "Activity", "setting": "A549 [19]", "result": 89.1, "unit": "%"}, {"measurement": "Activity", "setting": "[20]", "result": "Non-Toxic"}, {"measurement": "Activity", "setting": "[21]", "result": "Non-Toxic"}, {"measurement": "MTD at 5 days", "setting": "[22]", "result": 100, "unit": "mg/kg"}]}]}
